Patent US9126973B2, “Multiheteroaryl compounds as inhibitors of H-PGDS and their use for treating prostaglandin D2 mediated diseases” (Cayman Chemical Company, Incorporated, priority 2008, dated 2015)

How the values were obtained:
H-PGDS [1] = target: T1, H-PGDS (Homo sapiens (Human), UniProt O60760); test: H-PGDS Inhibitor Enzyme Immunoassay (EIA); type: biochemical; conditions: 25 ng H-PGDS, 40 μM PGH2, 1 mM GSH; PGD2 quantified by EIA
Description: H-PGDS Inhibitor Enzyme Immunoassay
The assay detects and measures PGD2 generated by H-PGDS. The prostanoid product is quantified via enzyme immunoassay (EIA) using a specific PGD2 antibody.
The assay is carried out by the following steps: • 1. Inhibitor screening is performed in 100 mM Tris-HCl, pH 8.0 containing 1 mM GSH, 1 mM MgCl2, 4% inhibitor/DMSO, 40 μM PGH2 and 25 ng of PGDS in a total volume of 125 μL. • 2. A reaction mixture containing 100 mM Tris-HCl, pH 8.0, 1 mM GSH, 1 mM MgCl2, 25 ng H-PGDS and 4% inhibitor or DMSO (uninhibited reaction) is preincubated at 25° C. for 10 minutes. • 3. Reactions are initiated using 5 μL of PGH2 and quenched every 15 seconds for one minute. Reactions are quenched by taking 10 μL of reaction mixture and adding to 490 μL of 100 mM phosphate buffer containing 0.1% BSA, 400 mM NaCl, 1 mM EDTA, 20 mM FeCl2, 10% 1N HCl, and 0.01% azide to prevent the non-enzymatic formation of PGD2 from PGH2. The FeCl2 serves the purpose of reducing PGH2 to 12-HHT. (Quench buffer is kept on ice at all times). • 4. Quenched samples (5 μL) are further diluted 100 fold in 495 μL of 100 mM phosphate buffer containing 0.1% BSA, 400 mM NaCl, 1 mM EDTA, and 0.01% azide for the PGD2 EIA assay. (Dilution buffers are kept on ice at all times).
The final 5000 fold diluted samples are analyzed following the protocol outlined in Cayman Chemical's commercially available PGD2 EIA kit (Cat. #512021). 50 μL of diluted sample is analyzed at least in duplicate in the EIA assay and the amount of PGD2 formed is quantified using a standard curve.

H-PGDS [2] = target: T1, H-PGDS; test: H-PGDS Fluorescence Polarization Binding Assay (FPBA); conditions: H-PGDS-MBP fusion enzyme, fluorescent probe, reduced glutathione 5 mM, 60-90 minutes at room temperature, 96-well format
Description: H-PGDS Fluorescence Polarization Binding Assay This assay essentially is available from Cayman Chemical Company as Catalog item #600007. The test data reported for the aforementioned Examples (H-PGDS FPBA IC50) were generated using a 96-well, instead of the 384-well, format. […] Assays were performed in 96-well microtiter plates in 100 μL of total sample volume. Excitation and emission wavelengths appropriate for the employed detection analyte were used. […] Twelve clean microfuge tubes were labeled A1 through A12. […] Dimethyl sulfoxide (50 μL) was added to each of tubes A1 through A11. The HQL-79 control solution was serially diluted by removing 50 μL from tube A12 and placing it in tube A11 with subsequent thorough mixing of the contents of tube A11. Next, 50 μL was removed from tube A11 and was placed into tube A10 with subsequent thorough mixing of the contents of tube A10. This process was repeated for tubes A9 through A2. […] A test compound may be dissolved in DMSO, ethanol, or methanol at several concentrations when the titration endpoint is unknown. […] Assay cocktail (95 μL) was added to each plate well. DMSO (5 μL) from microfuge tube A1 was added to each plate well A1 and B1. Positive control solution (5 μL) from microfuge tube A2 was added to each plate well A2 and B2. Positive control solution (5 μL) from microfuge tube A3 was added to each plate well A3 and B3. This procedure was continued until all the positive control standard dilutions were aliquoted. Test compound solutions (5 μL) were added to the wells. […] The IC50 for a particular test compound was obtained by performing a full concentration titration versus a full concentration titration of positive control. Comparison of a single concentration of a test compound to the maximum binding well provided an assessment of the relative affinity of the test compound for H-PGDS-MBP. The plate was covered and incubated for 60-90 minutes at room temperature. The FP signal is stable for at least two hours. […] The measurements were taken in the fluorescent polarization mode with the z-height set to the middle of the well and the G-factor set to 1.13 on a Tecan Safire 2 reader.

[3] = background statement with literature references; cited from earlier work

T1 sequence (O60760 whole entry): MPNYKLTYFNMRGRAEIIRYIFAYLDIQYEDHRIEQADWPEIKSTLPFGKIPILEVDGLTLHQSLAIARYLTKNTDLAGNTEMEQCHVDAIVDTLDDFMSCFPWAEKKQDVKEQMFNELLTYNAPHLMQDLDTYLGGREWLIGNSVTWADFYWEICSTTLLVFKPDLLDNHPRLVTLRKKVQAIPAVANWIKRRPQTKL

Row | Compound | melting point | IC50 (H-PGDS [1]) | IC50 (H-PGDS [2]) | antiallergic and antiasthmatic activity in vivo [3]
1 | c1ccc(C(OC2CCN(CCCc3nnn[nH]3)CC2)c2ccccc2)cc1 [HQL-79] | – | – | – | antiallergic and antiasthmatic activity in vivo
2 | c1ccc(-c2ccc(-c3cnc(-c4ccccc4)[nH]3)cn2)cc1 [Example 2, 2-phenyl-5-(2-phenyl-1H-imidazol-5-yl)pyridine] | 206 °C | 97 nM | 480 nM | –
3 | c1ccc(-c2ncc(-c3cnc(-c4ccccn4)[nH]3)cn2)cc1 [Example 9, 2-phenyl-5-(2-(pyridin-2-yl)-1H-imidazol-5-yl)pyrimidine] | 262 °C | 53 nM | 125 nM | –

Now from value to molecule, other results behind:

Row | melting point | IC50 (H-PGDS [1]) | IC50 (H-PGDS [2]) | Compound | antiallergic and antiasthmatic activity in vivo [3]
4 | 223 °C | 6 nM | 80 nM | c1ccc(CN2CCC(c3ncc(-c4cnc(-c5ccccc5)nc4)[nH]3)CC2)cc1 [Example 19, 5-(2-(1-benzylpiperidin-4-yl)-1H-imidazol-5-yl)-2-phenylpyrimidine] | –
5 | 300 °C | 75 nM | 125 nM | c1ccc(-c2ncc(-c3cnc(-c4ccncc4)[nH]3)cn2)cc1 [Example 13, 2-phenyl-5-(2-(pyridin-4-yl)-1H-imidazol-5-yl)pyrimidine] | –
